# Laboratory results: patent publication US20240158446A1, “CYCLIC COMPOUND HAVING SELECTIVE INHIBITORY ACTION ON KRAS OVER HRAS AND NRAS” (CHUGAI SEIYAKU KABUSHIKI KAISHA, priority 2021, published 2024)
# *1 amine or outer side, *2 acyl side, *3 side chain or, on linkers, in order; H or OH if unused. Where a SMILES comes first, the peptide text is derived from it. Bridges are numbered along the chain shown (N, C = ends). [ ]: non-standard residue; d: D form. The star is where a group is joined. hPhe(3-Cl-4-CF3) = N[C@@H](CCc1ccc(C(F)(F)F)c(Cl)c1)C(=O)O; NPrPhe(4-CF3) = CCCN[C@@H](Cc1ccc(C(F)(F)F)cc1)C(=O)O; NEtAsp = CCN([C@@H](CC(=O)[*:3])C(=O)[*:2])[*:1]; NMeGly(cPent) = CN[C@H](C(=O)O)C1CCCC1; Ac4c(3,3-Me2) = CC1(C)CC(N)(C(=O)O)C1; NMeD = CN[C@@H](CC(=O)O)C(=O)O; NMeL = CN[C@@H](CC(C)C)C(=O)O; NMeNva = CCC[C@H](NC)C(=O)O; Morpholide = C1CN(*)CCO1; NMeA = CN[C@@H](C)C(=O)O; Aze = O=C(O)[C@@H]1CCN1; Ac4c = NC1(C(=O)O)CCC1; Sar = CNCC(=O)O
# Columns and labels:
# [1] = biological target: GDP-bound KRAS wild-type protein (Homo sapiens, UniProt P01116); assay: Binding to KRAS by surface plasmon resonance (SPR), Single Cycle Kinetics; conditions: SPR, Single Cycle Kinetics, GDP-bound KRAS wild-type protein; read-out: KRAS KD
# Sequence of GDP-bound KRAS wild-type protein (P01116 whole entry): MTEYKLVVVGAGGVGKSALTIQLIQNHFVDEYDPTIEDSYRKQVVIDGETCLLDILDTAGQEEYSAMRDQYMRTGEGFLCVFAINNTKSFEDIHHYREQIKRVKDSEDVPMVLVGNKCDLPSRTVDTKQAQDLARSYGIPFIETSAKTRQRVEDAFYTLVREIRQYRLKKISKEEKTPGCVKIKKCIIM
# [2] = test system: human lung cancer strain NCI-H441; assay: cells; conditions: NCI-H441, 96 h, read-out: NCI-H441 IC50 (nM), NCI-H441 cell proliferation, 4 days, CellTiter-Glo;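 note: cell proliferation inhibition after four days measured by CellTiter-Glo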
# [3] = biological target: GDP-bound NRAS wild-type protein (Homo sapiens, UniProt P01111); assay: Binding to NRAS by surface plasmon resonance (SPR), Single Cycle Kinetics; conditions: ratio of KD for GDP-bound NRAS wild-type protein to KD for KRAS, SPR
# Sequence of GDP-bound NRAS wild-type protein (P01111 whole entry): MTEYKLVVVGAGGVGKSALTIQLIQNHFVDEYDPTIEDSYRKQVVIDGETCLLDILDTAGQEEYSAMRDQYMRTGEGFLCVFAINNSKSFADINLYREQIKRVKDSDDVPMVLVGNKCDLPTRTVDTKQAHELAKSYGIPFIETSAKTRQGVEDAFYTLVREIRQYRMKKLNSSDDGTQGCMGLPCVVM
# [4] = biological target: GDP-bound HRAS wild-type protein (Homo sapiens, UniProt P01112); assay: Binding to HRAS by surface plasmon resonance (SPR), Single Cycle Kinetics; conditions: ratio of KD for GDP-bound HRAS wild-type protein to KD for KRAS, SPR
# Sequence of GDP-bound HRAS wild-type protein (P01112 whole entry): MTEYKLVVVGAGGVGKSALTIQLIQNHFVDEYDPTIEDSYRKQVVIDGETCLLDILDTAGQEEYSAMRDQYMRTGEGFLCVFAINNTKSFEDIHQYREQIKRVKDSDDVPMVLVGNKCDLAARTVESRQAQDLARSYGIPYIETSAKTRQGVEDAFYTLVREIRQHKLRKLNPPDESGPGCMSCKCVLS
Kd [1] [nM],IC50 [2] [nM],Compound,NRAS/KRAS (KD ratio) [3],HRAS/KRAS (KD ratio) [4]
0.19,5.7,CCCC[C@H]1C(=O)N[C@@H]([C@@H](C)CC)C(=O)N(C)CC(=O)N(C)[C@H]2C/C=C\CCN(C2=O)[C@@H](Cc2ccc(C(F)(F)F)cc2)C(=O)N(C)CC(=O)N[C@@H](CCc2cc(F)c(C(F)(F)F)c(F)c2)C(=O)N2C[C@@H](C)C[C@H]2C(=O)NC2(CC(C)(C)C2)C(=O)N(C)[C@@H](C2CCCC2)C(=O)N(C)[C@H](C(=O)N(C)C)CC(=O)N1C [PP1661],A (a compound having 10 or more and less than 20 is denoted as A),A (a compound having 10 or more and less than 20 is denoted as A)
0.06,2,CCCOC[C@H]1C(=O)N[C@@H]([C@@H](C)CC)C(=O)N(C)CC(=O)N(C)[C@H]2C/C=C\CCN(C2=O)[C@@H](Cc2ccc(C(F)(F)F)cc2)C(=O)N(C)CC(=O)N[C@@H](CCc2ccc(C(F)(F)F)c(OC)c2)C(=O)N2C[C@H](OCC)C[C@H]2C(=O)NC2(CC(C)(C)C2)C(=O)N(C)[C@@H](C2CCCC2)C(=O)N(C)[C@H](C(=O)N(C)C)CC(=O)N1C [PP1657],A (a compound having 10 or more and less than 20 is denoted as A),B (a compound having 3 or more and less than 10 is denoted as B)
0.023,2.4,CCC[C@H]1C(=O)N[C@@H]([C@@H](C)CC)C(=O)N(C)CC(=O)N(C)[C@H]2C/C=C\CCN(C2=O)[C@@H](Cc2ccc(C)cc2)C(=O)N(C)CC(=O)N[C@@H](CCc2cc(F)c(C(F)(F)F)c(F)c2)C(=O)N2C[C@H](OCC)C[C@H]2C(=O)N(C)C2(CCC2)C(=O)N(C)[C@@H](C2CCCC2)C(=O)N(C)[C@H](C(=O)N(C)C)CC(=O)N1C [PP1793],A (a compound having 10 or more and less than 20 is denoted as A),B (a compound having 3 or more and less than 10 is denoted as B)
0.14,6.6,CCCN(C)C(=O)[C@@H]1CC(=O)N(C)[C@@H](CC(F)F)C(=O)N[C@@H]([C@@H](C)CC)C(=O)N(C)CC(=O)N(C)[C@H]2C/C=C\CCN(C2=O)[C@@H](Cc2ccc(C(F)(F)F)cc2)C(=O)N(C)CC(=O)N[C@@H](CCc2ccc(C(F)(F)F)c(OC)c2)C(=O)N2C[C@H](OCC)C[C@H]2C(=O)NC2(CC(C)(C)C2)C(=O)N(C)[C@@H](C2CCCC2)C(=O)N1C [PP2010],A (a compound having 10 or more and less than 20 is denoted as A),B (a compound having 3 or more and less than 10 is denoted as B)
1,55.9,CCO[C@@H]1C[C@H]2C(=O)NC3(CCCC3)C(=O)N(C)[C@@H](C3CCCC3)C(=O)N(C)[C@H](C(=O)N(C)C)CC(=O)N(C)[C@@H](CC)C(=O)N[C@@H]([C@@H](C)CC)C(=O)N(C)CC(=O)N(C)[C@H]3C/C=C\CCN(C3=O)[C@@H](Cc3ccc(C(F)(F)F)cc3)C(=O)N(C)CC(=O)N[C@@H](CCc3cc(C)c(Cl)c(C)c3)C(=O)N2C1 [PP1823],A (a compound having 10 or more and less than 20 is denoted as A),A (a compound having 10 or more and less than 20 is denoted as A)
0.15,10.8,CCCN(C)C(=O)[C@@H]1CC(=O)N(C)[C@@H](COCC)C(=O)N[C@@H]([C@@H](C)CC)C(=O)N(C)CC(=O)N(C)[C@H]2C/C=C\CCN(C2=O)[C@@H](Cc2ccc(C(F)(F)F)cc2)C(=O)N(C)CC(=O)N[C@@H](CCc2ccc(C(F)(F)F)c(OC)c2)C(=O)N2C[C@@H](C)C[C@H]2C(=O)NC2(CC(C)(C)C2)C(=O)N(C)[C@@H](C2CCCC2)C(=O)N1C [PP1991],A (a compound having 10 or more and less than 20 is denoted as A),A (a compound having 10 or more and less than 20 is denoted as A)
0.12,22.4,CC[C@H](C)[C@@H]1NC(=O)[C@H](C2CC2)N(C)C(=O)C[C@@H](C(=O)N(C)C)N(C)C(=O)[C@H](C2CCCC2)N(C)C(=O)C2(CCCC2)N(C)C(=O)[C@@H]2CCCN2C(=O)[C@H](CCc2cc(F)c(C(F)(F)F)c(F)c2)NC(=O)CN(C)C(=O)[C@H](Cc2ccc(C)cc2)N2CC/C=C\C[C@@H](C2=O)N(C)C(=O)CN(C)C1=O [PP1809],A (a compound having 10 or more and less than 20 is denoted as A),B (a compound having 3 or more and less than 10 is denoted as B)
0.15,10.8,CC[C@H](C)[C@@H]1NC(=O)[C@H](CC(C)C)N(C)C(=O)C[C@@H](C(=O)N(C)CC)N(C)C(=O)[C@H](C2CCCC2)N(C)C(=O)C2(CC(C)(C)C2)NC(=O)[C@@H]2C[C@H](C)CN2C(=O)[C@H](CCc2ccc(C(F)(F)F)c(OC)c2)NC(=O)CN(C)C(=O)[C@H](Cc2ccc(C)cc2)N2CC/C=C\C[C@@H](C2=O)N(C)C(=O)CN(C)C1=O [PP1906],A (a compound having 10 or more and less than 20 is denoted as A),A (a compound having 10 or more and less than 20 is denoted as A)
0.067,2.5,CCCOC[C@H]1C(=O)N[C@@H]([C@@H](C)CC)C(=O)N(C)CC(=O)N(C)[C@H]2C/C=C\CCN(C2=O)[C@@H](Cc2ccc(C(F)(F)F)cc2)C(=O)N(C)CC(=O)N[C@@H](CCc2cc(F)c(C(F)(F)F)c(F)c2)C(=O)N2CC(F)(F)C[C@H]2C(=O)NC2(CC(C)(C)C2)C(=O)N(C)[C@@H](C2CCCC2)C(=O)N(C)[C@H](C(=O)N(C)C)CC(=O)N1C [PP1718],AA (a compound having 20 or more is denoted as AA),A (a compound having 10 or more and less than 20 is denoted as A)
0.19,10.3,"CCCN1C(=O)CN(C)C(=O)CN(C)C(=O)[C@H]([C@@H](C)OCC)NC(=O)[C@H](CC(C)C)N(C)C(=O)C[C@@H](C(=O)N2CCOCC2)N(C)C(=O)[C@H](C2CCCC2)N(C)C(=O)C2(CC(C)(C)C2)NC(=O)[C@@H]2CCCN2C(=O)[C@H](CCc2ccc(C(F)(F)F)c(Cl)c2)NC(=O)CN(C)C(=O)[C@@H]1Cc1ccc(C(F)(F)F)cc1 [PP1964] ([NMeL]T(Et)[Sar][Sar][NPrPhe(4-CF3)][Sar][hPhe(3-Cl-4-CF3)]P[Ac4c(3,3-Me2)][NMeGly(cPent)][NMeD]-Morpholide; lactam N-11)",B (a compound having 3 or more and less than 10 is denoted as B),B (a compound having 3 or more and less than 10 is denoted as B)
0.82,4.4,CCC[C@H]1C(=O)N[C@@H]([C@@H](C)CC)C(=O)N(C)[C@@H](C)C(=O)N2CC[C@H]2C(=O)N(CCC)[C@@H](Cc2ccc(C(F)(F)F)cc2)C(=O)N(C)CC(=O)N[C@@H](CCc2ccc(C(F)(F)F)c(Cl)c2)C(=O)N2CCC[C@H]2C(=O)NC2(CCC2)C(=O)N(C)[C@@H](C2CCCC2)C(=O)N(CC)[C@H](C(=O)N2CCOCC2)CC(=O)N1C [PP1955] ([NMeNva]I[NMeA][Aze][NPrPhe(4-CF3)][Sar][hPhe(3-Cl-4-CF3)]P[Ac4c][NMeGly(cPent)][NEtAsp]-Morpholide; lactam N-11),C (A compound having a KD ratio of 0.1 or more and less than 3 is denoted as C),B (a compound having 3 or more and less than 10 is denoted as B)
0.13,9.9,CC[C@H](C)[C@@H]1NC(=O)[C@H](CC)N(C)C(=O)C[C@@H](C(=O)N(C)CC)N(C)C(=O)[C@H](C2CCCC2)N(C)C(=O)C2(CC(C)(C)C2)NC(=O)[C@@H]2C[C@H](C)CN2C(=O)[C@H](CCc2ccc(C(F)(F)F)c(Cl)c2)NC(=O)CN(C)C(=O)[C@H](Cc2ccc(C)cc2)N2CC/C=C\C[C@@H](C2=O)N(C)C(=O)CN(C)C1=O [PP1874],A (a compound having 10 or more and less than 20 is denoted as A),A (a compound having 10 or more and less than 20 is denoted as A)
0.1,4.3,CCCC[C@H]1C(=O)N[C@@H]([C@@H](C)CC)C(=O)N(C)CC(=O)N(C)[C@H]2C/C=C\CCN(C2=O)[C@@H](Cc2ccc(C(F)(F)F)cc2)C(=O)N(C)CC(=O)N[C@@H](CCc2cc(F)c(C(F)(F)F)c(F)c2)C(=O)N2CC(F)(F)C[C@H]2C(=O)NC2(CC(C)(C)C2)C(=O)N(C)[C@@H](C2CCCC2)C(=O)N(C)[C@H](C(=O)N(C)C)CC(=O)N1C [PP1714],A (a compound having 10 or more and less than 20 is denoted as A),A (a compound having 10 or more and less than 20 is denoted as A)
0.13,3.6,CCC[C@H]1C(=O)N[C@@H]([C@@H](C)CC)C(=O)N(C)CC(=O)N(C)[C@H]2C/C=C\CCN(C2=O)[C@@H](Cc2ccc(C(F)(F)F)cc2)C(=O)N(C)CC(=O)N[C@@H](CCc2cc(F)c(C(F)(F)F)c(F)c2)C(=O)N2C[C@H](OCC)C[C@H]2C(=O)NC2(CC(F)(F)C2)C(=O)N(C)[C@@H](C2CCCC2)C(=O)N(C)[C@H](C(=O)N(C)CCC)CC(=O)N1C [PP1736],A (a compound having 10 or more and less than 20 is denoted as A),A (a compound having 10 or more and less than 20 is denoted as A)
0.051,4.1,CC[C@H](C)[C@@H]1NC(=O)[C@H](CC(C)C)N(C)C(=O)C[C@@H](C(=O)N(C)CC)N(C)C(=O)[C@H](C2CCCC2)N(C)C(=O)C2(CC(C)(C)C2)NC(=O)[C@@H]2C[C@@H](F)CN2C(=O)[C@H](CCc2cc(F)c(C(F)(F)F)c(F)c2)NC(=O)CN(C)C(=O)[C@H](Cc2ccc(C(F)(F)F)cc2)N2CC/C=C\C[C@@H](C2=O)N(C)C(=O)CN(C)C1=O [PP1694],A (a compound having 10 or more and less than 20 is denoted as A),A (a compound having 10 or more and less than 20 is denoted as A)
